Experimental data taken from ChEMBL document CHEMBL5120960, “Unveiling the Structure-Activity Relationships at the Orthosteric Binding Site of P2X Ion Channels: The Route to Selectivity” (J Med Chem, 2022).

What was measured:
Assay type in all cases: cell-based
P2X purinoceptor 1 = target: T1, P2X purinoceptor 1 (Homo sapiens, UniProt P51575); experiment: […] activity at human P2X1R expressing CHO cells assessed as reduction in intracellular Ca2+ influx pretreated with Fluo-4 for 1 hr followed by compound addition and further incubated for 30 mins in presence of ATP by multimode plate reader analysis
T1 sequence (P51575 whole entry): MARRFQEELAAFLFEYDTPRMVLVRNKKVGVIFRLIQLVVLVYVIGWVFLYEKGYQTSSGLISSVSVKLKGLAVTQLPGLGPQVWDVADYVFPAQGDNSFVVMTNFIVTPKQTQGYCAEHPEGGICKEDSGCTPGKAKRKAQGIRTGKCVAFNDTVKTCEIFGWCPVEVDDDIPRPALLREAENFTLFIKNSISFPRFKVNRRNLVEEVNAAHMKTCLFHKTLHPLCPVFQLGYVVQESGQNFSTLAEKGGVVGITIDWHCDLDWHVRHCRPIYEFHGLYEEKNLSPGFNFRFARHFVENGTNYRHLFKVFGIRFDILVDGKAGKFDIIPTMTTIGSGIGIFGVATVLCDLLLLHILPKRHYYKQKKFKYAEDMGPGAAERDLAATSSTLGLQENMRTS

P2X purinoceptor 2 = target: T2, P2X purinoceptor 2 (Homo sapiens, UniProt Q9UBL9); experiment: […] activity at human P2X2R expressing CHO cells assessed as reduction in intracellular Ca2+ influx pretreated with Fluo-4 for 1 hr followed by compound addition and further incubated for 30 mins in presence of ATP by multimode plate reader analysis
T2 sequence (Q9UBL9 whole entry): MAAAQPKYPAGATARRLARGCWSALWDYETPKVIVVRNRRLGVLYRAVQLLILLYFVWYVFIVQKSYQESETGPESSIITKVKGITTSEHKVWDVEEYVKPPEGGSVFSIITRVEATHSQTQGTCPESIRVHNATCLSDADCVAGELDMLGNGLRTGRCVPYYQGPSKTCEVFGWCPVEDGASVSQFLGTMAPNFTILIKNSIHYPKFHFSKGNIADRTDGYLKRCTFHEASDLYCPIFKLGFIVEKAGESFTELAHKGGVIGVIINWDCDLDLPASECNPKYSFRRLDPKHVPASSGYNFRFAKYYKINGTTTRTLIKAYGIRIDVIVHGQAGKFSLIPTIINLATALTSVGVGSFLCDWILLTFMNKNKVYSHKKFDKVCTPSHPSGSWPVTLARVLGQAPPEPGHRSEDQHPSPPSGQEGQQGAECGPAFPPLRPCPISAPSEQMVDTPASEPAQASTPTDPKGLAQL

P2X purinoceptor 3 = target: T3, P2X purinoceptor 3 (Homo sapiens, UniProt P56373); experiment: […] activity at human P2X3R expressing CHO cells assessed as reduction in intracellular Ca2+ influx pretreated with Fluo-4 for 1 hr followed by compound addition and further incubated for 30 mins in presence of ATP by multimode plate reader analysis
T3 sequence (P56373 whole entry): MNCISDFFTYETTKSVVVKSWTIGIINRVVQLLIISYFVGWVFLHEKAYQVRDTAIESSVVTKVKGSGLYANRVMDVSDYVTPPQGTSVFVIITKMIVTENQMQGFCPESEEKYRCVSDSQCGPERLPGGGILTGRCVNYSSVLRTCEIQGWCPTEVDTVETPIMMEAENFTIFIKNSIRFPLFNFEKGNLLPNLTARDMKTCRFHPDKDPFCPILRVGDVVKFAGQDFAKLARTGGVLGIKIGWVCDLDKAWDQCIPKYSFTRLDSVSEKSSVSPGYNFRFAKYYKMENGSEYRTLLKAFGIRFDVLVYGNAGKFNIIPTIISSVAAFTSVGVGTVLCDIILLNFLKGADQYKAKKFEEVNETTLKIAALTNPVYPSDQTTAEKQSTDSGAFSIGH

[1] = target: T4, P2X2/P2X3 heterotrimeric receptor (Homo sapiens, UniProt P56373+Q9UBL9); experiment: […] activity at human P2X2R/P2X3R expressing CHO cells assessed as reduction in intracellular Ca2+ influx pretreated with Fluo-4 for 1 hr followed by compound addition and further incubated for 30 mins in presence of ATP by multimode plate reader analysis
T4 sequence (Q9UBL9 whole entry): T2 sequence (Q9UBL9 whole entry)
T4 sequence (P56373 whole entry): T3 sequence (P56373 whole entry)

P2X purinoceptor 4 = target: T5, P2X purinoceptor 4 (Homo sapiens, UniProt Q99571); experiment: […] activity at human P2X4R expressing HEK293 cells assessed as reduction in intracellular Ca2+ influx pretreated with Fluo-4 for 1 hr followed by compound addition and further incubated for 30 mins in presence of ATP by multimode plate reader analysis
T5 sequence (Q99571 whole entry): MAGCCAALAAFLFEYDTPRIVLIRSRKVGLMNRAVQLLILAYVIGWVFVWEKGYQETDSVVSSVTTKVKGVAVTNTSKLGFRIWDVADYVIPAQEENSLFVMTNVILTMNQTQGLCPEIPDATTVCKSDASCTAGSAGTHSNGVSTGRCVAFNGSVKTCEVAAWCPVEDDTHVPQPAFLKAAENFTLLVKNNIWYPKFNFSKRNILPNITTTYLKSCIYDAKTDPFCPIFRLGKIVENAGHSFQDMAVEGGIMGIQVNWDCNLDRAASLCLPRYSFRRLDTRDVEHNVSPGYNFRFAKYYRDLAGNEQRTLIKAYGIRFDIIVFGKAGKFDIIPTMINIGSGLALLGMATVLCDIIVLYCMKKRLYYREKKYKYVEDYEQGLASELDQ

P2X purinoceptor 7 [2] = target: T6, P2X purinoceptor 7 (Homo sapiens, UniProt Q99572); experiment: […] activity at human P2X7R expressing HEK293 cells assessed as reduction in intracellular Ca2+ influx pretreated with Fluo-4 for 1 hr followed by compound addition and further incubated for 30 mins in presence of ATP by multimode plate reader analysis
T6 sequence (Q99572 whole entry): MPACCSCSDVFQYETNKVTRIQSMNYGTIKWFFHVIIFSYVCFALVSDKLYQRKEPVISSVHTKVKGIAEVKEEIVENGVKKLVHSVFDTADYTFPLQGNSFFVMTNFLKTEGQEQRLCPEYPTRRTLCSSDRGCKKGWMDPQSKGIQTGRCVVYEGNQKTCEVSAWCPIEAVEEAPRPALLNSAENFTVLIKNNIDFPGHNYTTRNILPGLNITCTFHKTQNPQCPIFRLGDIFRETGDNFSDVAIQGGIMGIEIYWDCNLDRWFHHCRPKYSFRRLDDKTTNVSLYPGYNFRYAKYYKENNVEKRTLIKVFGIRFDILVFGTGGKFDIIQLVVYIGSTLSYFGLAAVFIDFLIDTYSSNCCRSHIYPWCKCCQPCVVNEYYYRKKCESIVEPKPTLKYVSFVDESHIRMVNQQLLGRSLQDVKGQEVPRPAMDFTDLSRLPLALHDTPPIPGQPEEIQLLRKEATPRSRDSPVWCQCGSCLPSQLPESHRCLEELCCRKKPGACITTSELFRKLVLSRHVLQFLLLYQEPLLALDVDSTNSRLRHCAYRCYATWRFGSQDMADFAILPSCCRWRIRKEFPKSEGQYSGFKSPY

P2X purinoceptor 7 [3] = target: T6, P2X purinoceptor 7; experiment: […] activity at human P2X7R expressed in HEK293 cells assessed as reduction in YO-PRO-1 iodide dye uptake preincubated for 30 mins followed by YO-PRO-1 iodide addition and measured after 2 hrs by fluorescence based multimode plate reader analysis

| Structure (SMILES) | IC50 (P2X purinoceptor 1) | IC50 (P2X purinoceptor 2) | IC50 (P2X purinoceptor 3) | IC50 [1] | IC50 (P2X purinoceptor 4) | IC50 (P2X purinoceptor 7 [2]) | IC50 (P2X purinoceptor 7 [3]) |
| --- | --- | --- | --- | --- | --- | --- | --- |
| O=P(O)(O)OP(=O)(O)OP(=O)(O)OC[C@H]1O[C@@H](n2cnc3c(Cl)ncnc32)[C@H](O)[C@@H]1O | 0.00355 µM | 0.0871 µM | 0.741 µM | 0.129 µM | > 100 µM | > 100 µM | > 100 µM |
| Nc1ncnc2c1ncn2[C@@H]1O[C@H](COP(=O)(O)OP(=O)(O)OP(=O)(O)O)[C@@H](O)[C@H]1F | > 100 µM | 5.62 µM | 10.5 µM | 5.37 µM | 2.75 µM | > 100 µM | > 100 µM |
| Nc1ncnc2c1ncn2[C@@H]1O[C@H](COP(=O)(O)OP(=O)(O)OP(=O)(O)O)[C@@H](O)[C@H]1N | 6.46 µM | > 100 µM | 4.27 µM | 0.363 µM | > 100 µM | > 100 µM | > 100 µM |
| O=P(O)(O)OP(=O)(O)OP(=O)(O)OC[C@H]1O[C@@H](n2cnc3c2ncn2ccnc32)[C@H](O)[C@@H]1O | > 100 µM | 0.417 µM | 1 µM | 0.282 µM | > 100 µM | > 100 µM | > 100 µM |
| O=c1[nH]c2cncnc2n1[C@@H]1O[C@H](COP(=O)(O)OP(=O)(O)OP(=O)(O)O)[C@@H](O)[C@H]1O | > 100 µM | > 100 µM | 11 µM | > 100 µM | > 100 µM | > 100 µM | > 100 µM |
| CNc1ncnc2c1ncn2[C@@H]1O[C@H](COP(=O)(O)OP(=O)(O)OP(=O)(O)O)[C@@H](O)[C@H]1O | > 100 µM | > 100 µM | 1.29 µM | 0.263 µM | > 100 µM | > 100 µM | > 100 µM |
| O=P(O)(O)OP(=O)(O)OP(=O)(O)OC[C@H]1O[C@@H](n2cnc3c(Nc4ccccc4)ncnc32)[C@H](O)[C@@H]1O | > 100 µM | 0.00372 µM | 0.209 µM | 0.158 µM | 0.891 µM | > 100 µM | > 100 µM |
